Experimental data reported in ChEMBL document CHEMBL6114945, “Cyclic vinyl sulfones activate NRF2 to protect from oxidative stress-induced programmed necrosis” (Bioorg Med Chem Lett, 2025).
Active and inactive are the calls of the source. The rule behind the calls is not given here. Where a SMILES comes first, the peptide text is derived from it. The star is where a group is joined. Cbz = O=C(OCc1ccccc1)*

What was measured:
HeLa [1] = assay: Effect on KEAP1 mRNA expression level in human HeLa cells at 20 to 40 uM measured after 4 to 8 hrs by RT-PCR analysis; format: functional, cell-based; settings: dose 20-40 µM, time 4-8 hrs
[2] = target: T1, Keap1/Nrf2 (Homo sapiens) (UniProt Q16236+Q14145); assay: Inhibition of KEAP1 BTB domain-NRF2 protein-protein interaction in human NCI-H1299 cells assessed as upregulation of GCSc expression at 1.25 to 20 uM measured after 18 hrs by Western blot analysis; format: cell-based; settings: dose 1.25-20 µM
NCI-H1299 [3] = assay: Protection against RSL3-induced ferroptosis in human NCI-H1299 cells at 5 to 10 uM preincubated for 6 hrs followed by RSL3 addition and measured after 18 hrs by crystal violet staining based assay; format: functional, cell-based; settings: dose 5-10 µM, time 24.0 hrs
[4] = target: T1, Keap1/Nrf2 (Homo sapiens); assay: Inhibition of KEAP1 BTB domain-NRF2 protein-protein interaction in human HeLa cells assessed as upregulation of NRF2 mRNA expression at 20 to 40 uM measured after 8 hrs by RT-PCR analysis; format: cell-based; settings: dose 20-40 µM
[5] = target: T1, Keap1/Nrf2 (Homo sapiens); assay: Inhibition of KEAP1 BTB domain-NRF2 protein-protein interaction in human HeLa cells assessed as upregulation of NQO1 mRNA expression at 40 uM measured after 4 to 8 hrs by RT-PCR analysis; format: cell-based; settings: time 4-8 hrs
[6] = target: Kelch-like ECH-associated protein 1 (Homo sapiens) (UniProt Q14145); assay: Binding affinity to KEAP1 in human HCT-116 cells assessed as appearance of high molecular weight bands of modified KEAP1 at 2.5 to 40 uM measured after 18 hrs by Western blotting analysis; format: cell-based; settings: dose 2.5-40 µM
[7] = target: T1, Keap1/Nrf2 (Homo sapiens); assay: Inhibition of KEAP1 BTB domain-NRF2 protein-protein interaction in human HeLa cells assessed as upregulation of NQO1 mRNA expression at 20 uM measured after 8 hrs by RT-PCR analysis; format: cell-based
[8] = target: T1, Keap1/Nrf2 (Homo sapiens); assay: Inhibition of KEAP1 BTB domain-NRF2 protein-protein interaction in human HeLa cells assessed as upregulation of HO-1 level at 40 uM measured after 18 hrs by Western blotting analysis; format: cell-based
[9] = target: T1, Keap1/Nrf2 (Homo sapiens); assay: Inhibition of KEAP1 BTB domain-NRF2 protein-protein interaction in human HCT-116 cells assessed as upregulation of NRF2 level at 2.5 to 40 uM measured after 18 hrs by Western blotting analysis; format: cell-based; settings: dose 2.5-40 µM
[10] = target: T1, Keap1/Nrf2 (Homo sapiens); assay: Inhibition of KEAP1 BTB domain-NRF2 protein-protein interaction in human HeLa cells assessed as upregulation of HO-1 mRNA expression at 20 uM measured after 4 to 8 hrs by RT-PCR analysis; format: cell-based; settings: time 4-8 hrs
[11] = target: T1, Keap1/Nrf2 (Homo sapiens); assay: Inhibition of KEAP1 BTB domain-NRF2 protein-protein interaction in human NCI-H1299 cells assessed as increase in nuclear localization of NRF2 at 20 uM measured after 18 hrs by immunostaining based microscopic analysis; format: cell-based
[12] = target: T1, Keap1/Nrf2 (Homo sapiens); assay: Inhibition of KEAP1 BTB domain-NRF2 protein-protein interaction in human HeLa cells assessed as upregulation of NRF2 level at 5 to 40 uM measured after 18 hrs by Western blotting analysis; format: cell-based; settings: dose 5-40 µM
[13] = target: T1, Keap1/Nrf2 (Homo sapiens); assay: Inhibition of KEAP1 BTB domain-NRF2 protein-protein interaction in human HeLa cells assessed as upregulation of NRF2 mRNA expression at 20 to 40 uM measured after 4 hrs by RT-PCR analysis; format: cell-based; settings: dose 20-40 µM
[14] = target: T1, Keap1/Nrf2 (Homo sapiens); assay: Inhibition of KEAP1 BTB domain-NRF2 protein-protein interaction in human HeLa cells assessed as upregulation of NRF2 level at 10 uM measured after 8 to 24 hrs by Western blotting analysis; format: cell-based; settings: time 8-24 hrs
[15] = target: T1, Keap1/Nrf2 (Homo sapiens); assay: Inhibition of KEAP1 BTB domain-NRF2 protein-protein interaction in human NCI-H1299 cells assessed as upregulation of SLC7A11 expression at 1.25 to 20 uM measured after 18 hrs by Western blot analysis; format: cell-based; settings: dose 1.25-20 µM
[16] = target: Kelch-like ECH-associated protein 1 (Homo sapiens) (UniProt Q14145); assay: Binding affinity to KEAP1 in human HeLa cells assessed as appearance of high molecular weight bands of modified KEAP1 at 10 uM measured after 4 to 24 hrs by Western blotting analysis; format: cell-based; settings: time 4-24 hrs
[17] = target: T1, Keap1/Nrf2 (Homo sapiens); assay: Inhibition of KEAP1 BTB domain-NRF2 protein-protein interaction in human HeLa cells assessed as upregulation of HO-1 level at 10 uM measured after 8 to 24 hrs by Western blotting analysis; format: cell-based; settings: time 8-24 hrs
HeLa [18] = assay: Protection against erastin-induced ferroptosis in human HeLa cells assessed as reduction in cell death; format: functional, cell-based
HCT-116 [19] = assay: Cytotoxicity against human HCT-116 cells at 40 uM; format: toxicity, cell-based; settings: hct-116, 40 µM
[20] = target: T1, Keap1/Nrf2 (Homo sapiens); assay: Inhibition of KEAP1 BTB domain-NRF2 protein-protein interaction in human NCI-H1299 cells assessed as upregulation of p-62 expression at 1.25 to 20 uM measured after 18 hrs by Western blot analysis; format: cell-based; settings: dose 1.25-20 µM
NCI-H1299 [21] = assay: Protection against RSL3-induced ferroptosis in human NCI-H1299 cells assessed as reduction in cell death at 5 to 10 uM preincubated for 6 hrs followed by RSL3 addition and measured after 18 hrs by morphological analysis; format: functional, cell-based; settings: dose 5-10 µM, time 24.0 hrs
NCI-H1299 [22] = assay: Protection against RSL3-induced ferroptosis in human NCI-H1299 cells at 10 uM preincubated for 6 hrs followed by RSL3 addition and measured after 18 hrs by phase contrast microscopy; format: functional, cell-based
[23] = target: T1, Keap1/Nrf2 (Homo sapiens); assay: Inhibition of KEAP1 BTB domain-NRF2 protein-protein interaction in human HeLa cells assessed as upregulation of p-62 mRNA expression at 20 to 40 uM measured after 8 hrs by RT-PCR analysis; format: cell-based; settings: dose 20-40 µM
[24] = target: T1, Keap1/Nrf2 (Homo sapiens); assay: Inhibition of KEAP1 BTB domain-NRF2 protein-protein interaction in human NCI-H1299 cells assessed as upregulation of HO-1 expression at 1.25 to 20 uM measured after 6 hrs by Western blot analysis; format: cell-based; settings: dose 1.25-20 µM
HeLa [25] = assay: Cytotoxicity against human HeLa cells at 40 uM; format: toxicity, cell-based
[26] = target: T1, Keap1/Nrf2 (Homo sapiens); assay: Inhibition of KEAP1-NRF2 protein-protein interaction in human HeLa cells assessed as increase in NRF2 level at 50 uM measured after 6 hrs by Western blotting analysis; format: cell-based
[27] = Inhibition of proteasome-mediated NRF2 degradation in human HeLa cells assessed as increase in NRF2 level at 10 uM measured after 6 hrs by Western blotting analysis; format: toxicity, cell-based
[28] = target: T1, Keap1/Nrf2 (Homo sapiens); assay: Inhibition of KEAP1 BTB domain-NRF2 protein-protein interaction in human HCT-116 cells assessed as upregulation of NRF2 level at 2.5 to 20 uM measured after 18 hrs by Western blotting analysis; format: cell-based; settings: dose 2.5-20 µM
HCT-116 [29] = assay: Cytotoxicity against human HCT-116 cells at >20 uM; format: toxicity, cell-based; settings: hct-116, 20 µM
[30] = target: T1, Keap1/Nrf2 (Homo sapiens); assay: Inhibition of KEAP1 BTB domain-NRF2 protein-protein interaction in human HeLa cells assessed as upregulation of NRF2 level at 2.5 uM measured after 18 hrs by Western blotting analysis; format: cell-based
A549 [31] = assay: Inhibition of KEAP1 mutant-NRF2 protein-protein interaction in human A549 cells assessed as upregulation of HO-1 level at 2.5 to 20 uM measured after 18 hrs by Western blotting analysis; format: cell-based; settings: dose 2.5-20 µM
[32] = target: T1, Keap1/Nrf2 (Homo sapiens); assay: Inhibition of KEAP1 BTB domain-NRF2 protein-protein interaction in human HeLa cells assessed as upregulation of HO-1 level at 5 uM measured after 18 hrs by Western blotting analysis; format: cell-based
A549 [33] = assay: Inhibition of KEAP1 mutant-NRF2 protein-protein interaction in human A549 cells assessed as upregulation of NRF2 level at 2.5 to 20 uM measured after 18 hrs by Western blotting analysis; format: cell-based; settings: dose 2.5-20 µM
[34] = target: T1, Keap1/Nrf2 (Homo sapiens); assay: Inhibition of KEAP1 BTB domain-NRF2 protein-protein interaction in human HeLa cells assessed as increase in NRF2 level at 50 nM measured after 6 hrs by Western blotting analysis; format: cell-based

T1 sequence (Q14145 whole entry, looked up, the tested form may be a part): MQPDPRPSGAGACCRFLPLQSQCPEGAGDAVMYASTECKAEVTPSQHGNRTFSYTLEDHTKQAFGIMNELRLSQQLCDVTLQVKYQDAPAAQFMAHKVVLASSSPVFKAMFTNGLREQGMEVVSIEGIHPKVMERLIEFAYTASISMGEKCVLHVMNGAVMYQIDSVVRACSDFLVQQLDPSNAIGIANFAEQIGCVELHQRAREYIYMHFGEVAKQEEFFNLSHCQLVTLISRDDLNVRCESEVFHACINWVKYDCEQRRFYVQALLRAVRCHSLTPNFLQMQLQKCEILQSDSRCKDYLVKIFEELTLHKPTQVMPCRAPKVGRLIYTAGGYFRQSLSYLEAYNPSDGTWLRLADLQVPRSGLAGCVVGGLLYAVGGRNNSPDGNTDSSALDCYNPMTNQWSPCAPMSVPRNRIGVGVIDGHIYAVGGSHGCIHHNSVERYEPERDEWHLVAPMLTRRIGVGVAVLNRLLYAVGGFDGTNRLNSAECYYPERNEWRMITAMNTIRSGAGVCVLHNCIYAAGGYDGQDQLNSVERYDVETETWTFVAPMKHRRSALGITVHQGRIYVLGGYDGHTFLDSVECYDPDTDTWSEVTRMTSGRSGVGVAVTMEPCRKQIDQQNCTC
T1 sequence (Q16236 whole entry, looked up, the tested form may be a part): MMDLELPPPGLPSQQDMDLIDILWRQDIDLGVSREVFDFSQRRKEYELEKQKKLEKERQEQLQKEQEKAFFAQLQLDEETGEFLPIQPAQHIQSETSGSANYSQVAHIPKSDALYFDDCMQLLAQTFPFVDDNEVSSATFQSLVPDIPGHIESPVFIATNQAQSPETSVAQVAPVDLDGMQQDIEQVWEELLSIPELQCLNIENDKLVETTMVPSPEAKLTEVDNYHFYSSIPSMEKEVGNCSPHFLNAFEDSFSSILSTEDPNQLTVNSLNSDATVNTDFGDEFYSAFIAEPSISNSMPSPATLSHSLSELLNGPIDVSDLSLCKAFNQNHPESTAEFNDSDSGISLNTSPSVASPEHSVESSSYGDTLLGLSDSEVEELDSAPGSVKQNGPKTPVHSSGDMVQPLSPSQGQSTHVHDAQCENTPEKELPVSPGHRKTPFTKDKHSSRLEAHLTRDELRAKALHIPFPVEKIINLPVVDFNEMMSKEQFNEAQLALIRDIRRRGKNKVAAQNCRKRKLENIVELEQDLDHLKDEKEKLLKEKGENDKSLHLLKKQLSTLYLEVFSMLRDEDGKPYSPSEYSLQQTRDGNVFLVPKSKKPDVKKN
Kelch-like ECH-associated protein 1 (Homo sapiens), sequence (Q14145 whole entry, the tested form may be a part): as the sequence (Q14145 whole entry, looked up, the tested form may be a part) above

For `CC1=C2C(CCS2(=O)=O)c2c(c(O)c3ccccc3c2O)C1` (centres undefined), the Activity (HeLa [1]) was “inactive”, the inhibition [2] was “Active” and the Activity (NCI-H1299 [3]) was “Active; Almost Complete Protection Observed”. For the same compound, the inhibition [4] was “Active”, the inhibition [5] was “Active; Highly Upregulated” and the Activity [6] was “Active”. For the same compound, the inhibition [7] was “Active”, the inhibition [8] was “Active; Most Efficiently Upregulated The Ho-1 Level At 40 Um” and the inhibition [9] was “Active; Stronger Activation Of Nrf2 Observed”. The inhibition [10] was “Active; Significant Changes Observed”, the inhibition [11] was “Active” and the inhibition [12] was “Active; Stronger Activation Of Nrf2 Observed”. The inhibition [13] was “inactive”, the inhibition [14] was “Active; Most Efficient Effect Was Observed After 8 Hrs” and the inhibition [15] was “Active”. For the same compound, the Activity [16] was “Active”, the inhibition [17] was “Active; Most Efficient Effect Was Observed After 8 Hrs” and the Activity (HeLa [18]) was “Active”. For the same compound, the Activity (HCT-116 [19]) was “Non-toxic”, the inhibition [20] was “Active” and the Activity (NCI-H1299 [21]) was “Active; Almost Complete Protection Observed”. For the same compound, the Activity (NCI-H1299 [22]) was “Active; Slightly More Profound Effect Observed At 10 Um”, the inhibition [23] was “Active; Significant Upregulation Observed” and the inhibition [24] was “Active”. The Activity (HeLa [25]) was “Non-toxic”.
With `CC(C)(C)c1cc(O)ccc1O` the inhibition [26] was “Active”.
With `CC(C)C[C@@H](C=O)NC(=O)[C@H](CC(C)C)NC(=O)[C@H](CC(C)C)NC(=O)OCc1ccccc1` [MG-132] (Cbz-Leu-Leu-Leu-aldehyde) the “inhibition (INH)” value [27] was “Active”.
In the case of `CC1=C2C(CCS2(=O)=O)c2c(O)ccc(O)c2C1` (centres undefined), the inhibition [28] is reported as “Active; Upregulated Nrf2 To A Lesser Degree”, the Activity (HCT-116 [29]) is reported as “Toxic” and the inhibition [30] is reported as “Active”. The inhibition (A549 [31]) was “inactive”, the inhibition [32] was “Active” and the inhibition (A549 [33]) was “inactive”.
For `CC1(C)CC[C@]2(C(=O)O)CC[C@]3(C)[C@H](C(=O)C=C4[C@@]5(C)C=C(C#N)C(=O)C(C)(C)[C@@H]5CC[C@]43C)[C@@H]2C1`, the inhibition [34] was “Active”.
